Source: ChEMBL document CHEMBL1143902, “Design and synthesis of a pyrido[2,3-d]pyrimidin-5-one class of anti-inflammatory FMS inhibitors” (Bioorg Med Chem Lett, 2008)
pIC50: −log10 of the molar value.

Experiments:
[1] = biological target: T1, Macrophage colony-stimulating factor 1 receptor (Homo sapiens, UniProt P07333)
Description: Inhibition of ATP-induced CSF1R autophosphorylation

[2] = tested on: Macrophage; assay: Inhibition of CSF1-induced proliferation of mouse bone marrow derived macrophages
[3] = Metabolic stability in human liver microsomes after 10 mins; assay type: ADME, Microsome; settings: read-out: Stability
[4] = Metabolic stability in rat liver microsomes after 10 mins; assay type: ADME, Microsome; settings: read-out: Stability
[5] = biological target: T1, Macrophage colony-stimulating factor 1 receptor; assay: Inhibition of CSF1R
[6] = biological target: T2, Receptor-type tyrosine-protein kinase FLT3 (Homo sapiens, UniProt P36888); assay: Inhibition of FLT3
T2 sequence (P36888 whole entry): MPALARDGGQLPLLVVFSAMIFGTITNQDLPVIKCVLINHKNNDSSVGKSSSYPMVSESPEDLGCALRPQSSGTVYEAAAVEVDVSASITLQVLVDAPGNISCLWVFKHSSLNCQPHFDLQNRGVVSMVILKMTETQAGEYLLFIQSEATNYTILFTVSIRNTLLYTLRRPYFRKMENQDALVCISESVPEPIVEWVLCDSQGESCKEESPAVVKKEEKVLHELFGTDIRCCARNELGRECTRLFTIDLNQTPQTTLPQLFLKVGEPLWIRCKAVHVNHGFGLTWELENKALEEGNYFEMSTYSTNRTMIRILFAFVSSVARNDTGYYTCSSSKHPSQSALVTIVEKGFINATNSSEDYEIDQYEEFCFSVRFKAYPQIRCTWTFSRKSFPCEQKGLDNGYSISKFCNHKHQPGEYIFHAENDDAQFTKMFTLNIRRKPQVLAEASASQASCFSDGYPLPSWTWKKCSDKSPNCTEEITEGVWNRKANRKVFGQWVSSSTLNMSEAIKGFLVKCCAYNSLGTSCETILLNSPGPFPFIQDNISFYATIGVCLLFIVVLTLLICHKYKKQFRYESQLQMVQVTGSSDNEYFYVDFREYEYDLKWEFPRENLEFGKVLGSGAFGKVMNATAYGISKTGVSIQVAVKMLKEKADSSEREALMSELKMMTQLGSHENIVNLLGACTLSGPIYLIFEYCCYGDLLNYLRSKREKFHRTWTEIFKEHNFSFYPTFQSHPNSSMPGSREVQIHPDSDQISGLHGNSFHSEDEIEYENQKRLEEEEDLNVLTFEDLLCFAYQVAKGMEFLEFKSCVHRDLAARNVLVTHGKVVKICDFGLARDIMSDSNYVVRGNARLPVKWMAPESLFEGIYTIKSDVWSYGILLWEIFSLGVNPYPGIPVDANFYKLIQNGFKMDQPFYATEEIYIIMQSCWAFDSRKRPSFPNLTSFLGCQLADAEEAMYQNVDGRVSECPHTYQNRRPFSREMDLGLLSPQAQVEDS

[7] = biological target: Mast/stem cell growth factor receptor Kit (Homo sapiens, UniProt P10721); assay: Inhibition of KIT
[8] = biological target: Platelet-derived growth factor receptor beta (Homo sapiens, UniProt P09619); assay: Inhibition of PDGFRbeta
[9] = biological target: T3, Tyrosine-protein kinase receptor UFO (Homo sapiens, UniProt P30530); assay: Inhibition of Axl
T3 sequence (P30530 whole entry): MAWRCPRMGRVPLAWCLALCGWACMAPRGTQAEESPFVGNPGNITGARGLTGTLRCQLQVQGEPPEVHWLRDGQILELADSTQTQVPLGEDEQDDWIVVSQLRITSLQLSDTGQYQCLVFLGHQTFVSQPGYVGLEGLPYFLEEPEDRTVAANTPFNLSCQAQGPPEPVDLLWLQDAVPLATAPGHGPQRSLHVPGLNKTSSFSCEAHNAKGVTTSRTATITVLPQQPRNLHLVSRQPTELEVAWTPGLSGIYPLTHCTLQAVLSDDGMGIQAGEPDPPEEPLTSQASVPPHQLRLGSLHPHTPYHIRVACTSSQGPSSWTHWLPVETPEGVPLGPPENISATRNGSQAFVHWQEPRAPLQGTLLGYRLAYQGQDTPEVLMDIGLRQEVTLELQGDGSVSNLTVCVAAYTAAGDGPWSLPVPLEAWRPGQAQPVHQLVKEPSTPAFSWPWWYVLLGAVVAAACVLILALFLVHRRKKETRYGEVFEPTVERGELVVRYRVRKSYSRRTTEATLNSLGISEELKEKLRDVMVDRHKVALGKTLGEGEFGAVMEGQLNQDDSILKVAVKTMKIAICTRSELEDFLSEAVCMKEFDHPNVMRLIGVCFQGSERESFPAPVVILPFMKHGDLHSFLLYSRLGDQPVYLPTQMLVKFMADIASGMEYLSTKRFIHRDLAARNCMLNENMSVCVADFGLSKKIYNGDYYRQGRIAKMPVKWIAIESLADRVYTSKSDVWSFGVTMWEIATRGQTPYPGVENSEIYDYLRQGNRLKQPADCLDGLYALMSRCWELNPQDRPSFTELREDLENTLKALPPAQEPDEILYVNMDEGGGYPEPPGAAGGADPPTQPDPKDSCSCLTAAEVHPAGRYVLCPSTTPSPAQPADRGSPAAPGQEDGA

[10] = biological target: High affinity nerve growth factor receptor (Homo sapiens, UniProt P04629); assay: Inhibition of TrkA
[11] = Inhibition of IRKbeta
[12] = biological target: Proto-oncogene tyrosine-protein kinase Src (Homo sapiens, UniProt P12931); assay: Inhibition of Src
[13] = biological target: T4, Adenosine receptor A3 (Homo sapiens) (UniProt P0DMS8); assay: Inhibition of human A3 receptor at 5 uM
T4 sequence (whole entry): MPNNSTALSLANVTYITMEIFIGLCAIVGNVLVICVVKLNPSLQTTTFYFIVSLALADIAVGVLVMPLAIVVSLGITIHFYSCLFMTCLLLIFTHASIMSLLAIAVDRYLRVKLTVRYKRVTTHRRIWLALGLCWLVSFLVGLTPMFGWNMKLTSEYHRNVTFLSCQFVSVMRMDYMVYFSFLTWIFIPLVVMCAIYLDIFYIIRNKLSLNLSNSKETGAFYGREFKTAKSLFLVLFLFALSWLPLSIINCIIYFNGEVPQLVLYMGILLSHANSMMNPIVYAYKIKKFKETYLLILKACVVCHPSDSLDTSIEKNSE

[14] = Clearance in rat at 2 mg/kg, iv; assay type: ADME, organism-based; parameters: dose 2 mg/kg, route intravenous; settings: in vivo
[15] = Volume of distribution in rat at 2 mg/kg, iv; assay type: ADME, organism-based; parameters: dose 2 mg/kg, route intravenous; settings: in vivo
[16] = biological target: T4, Adenosine receptor A3 (Homo sapiens); assay: Inhibition of human A3 receptor at 10 uM
[17] = biological target: Adenosine receptor A2a (Homo sapiens) (UniProt P29274); assay: Inhibition of human A2A receptor at 10 uM
[18] = Bioavailability in rat 10 mg/kg, po; assay type: ADME, organism-based; settings: in vivo
[19] = tested on: Mus musculus; assay: Inhibition of LPS-induced TNFalpha production in Swiss Webster mouse plasma at 20 mg/kg, ip after 90 mins; assay type: functional; parameters: scale not given: the % may be the effect or the level left; settings: route intraperitoneal
[20] = tested on: Mus musculus; assay: Inhibition of LPS-induced TNFalpha production in Swiss Webster mouse plasma at 50 mg/kg, ip after 90 mins; assay type: functional; parameters: scale not given: the % may be the effect or the level left; settings: route intraperitoneal

T1 sequence (P07333 whole entry): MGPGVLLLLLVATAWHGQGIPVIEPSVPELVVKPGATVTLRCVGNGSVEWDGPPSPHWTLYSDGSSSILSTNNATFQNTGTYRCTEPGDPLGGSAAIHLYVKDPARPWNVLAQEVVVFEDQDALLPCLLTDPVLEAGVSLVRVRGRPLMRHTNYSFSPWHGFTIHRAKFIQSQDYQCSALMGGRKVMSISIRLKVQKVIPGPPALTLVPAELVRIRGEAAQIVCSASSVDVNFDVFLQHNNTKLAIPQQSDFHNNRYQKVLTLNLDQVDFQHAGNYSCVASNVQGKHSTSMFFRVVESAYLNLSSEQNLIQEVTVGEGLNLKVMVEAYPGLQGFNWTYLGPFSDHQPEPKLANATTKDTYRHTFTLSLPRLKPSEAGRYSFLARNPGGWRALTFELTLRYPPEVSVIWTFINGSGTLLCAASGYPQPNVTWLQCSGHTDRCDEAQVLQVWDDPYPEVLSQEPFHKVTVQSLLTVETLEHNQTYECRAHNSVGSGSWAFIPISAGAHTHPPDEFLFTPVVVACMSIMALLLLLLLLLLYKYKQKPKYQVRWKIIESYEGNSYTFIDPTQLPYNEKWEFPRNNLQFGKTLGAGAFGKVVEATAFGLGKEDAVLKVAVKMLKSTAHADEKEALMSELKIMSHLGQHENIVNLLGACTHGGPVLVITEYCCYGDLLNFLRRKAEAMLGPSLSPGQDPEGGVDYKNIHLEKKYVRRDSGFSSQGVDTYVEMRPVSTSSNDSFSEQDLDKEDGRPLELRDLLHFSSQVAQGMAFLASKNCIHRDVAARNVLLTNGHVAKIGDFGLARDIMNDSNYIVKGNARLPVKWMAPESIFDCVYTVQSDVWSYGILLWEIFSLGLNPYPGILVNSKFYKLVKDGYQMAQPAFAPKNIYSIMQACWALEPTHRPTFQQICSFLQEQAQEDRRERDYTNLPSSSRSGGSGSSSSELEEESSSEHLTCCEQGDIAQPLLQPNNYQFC
Mast/stem cell growth factor receptor Kit, sequence (P10721 whole entry): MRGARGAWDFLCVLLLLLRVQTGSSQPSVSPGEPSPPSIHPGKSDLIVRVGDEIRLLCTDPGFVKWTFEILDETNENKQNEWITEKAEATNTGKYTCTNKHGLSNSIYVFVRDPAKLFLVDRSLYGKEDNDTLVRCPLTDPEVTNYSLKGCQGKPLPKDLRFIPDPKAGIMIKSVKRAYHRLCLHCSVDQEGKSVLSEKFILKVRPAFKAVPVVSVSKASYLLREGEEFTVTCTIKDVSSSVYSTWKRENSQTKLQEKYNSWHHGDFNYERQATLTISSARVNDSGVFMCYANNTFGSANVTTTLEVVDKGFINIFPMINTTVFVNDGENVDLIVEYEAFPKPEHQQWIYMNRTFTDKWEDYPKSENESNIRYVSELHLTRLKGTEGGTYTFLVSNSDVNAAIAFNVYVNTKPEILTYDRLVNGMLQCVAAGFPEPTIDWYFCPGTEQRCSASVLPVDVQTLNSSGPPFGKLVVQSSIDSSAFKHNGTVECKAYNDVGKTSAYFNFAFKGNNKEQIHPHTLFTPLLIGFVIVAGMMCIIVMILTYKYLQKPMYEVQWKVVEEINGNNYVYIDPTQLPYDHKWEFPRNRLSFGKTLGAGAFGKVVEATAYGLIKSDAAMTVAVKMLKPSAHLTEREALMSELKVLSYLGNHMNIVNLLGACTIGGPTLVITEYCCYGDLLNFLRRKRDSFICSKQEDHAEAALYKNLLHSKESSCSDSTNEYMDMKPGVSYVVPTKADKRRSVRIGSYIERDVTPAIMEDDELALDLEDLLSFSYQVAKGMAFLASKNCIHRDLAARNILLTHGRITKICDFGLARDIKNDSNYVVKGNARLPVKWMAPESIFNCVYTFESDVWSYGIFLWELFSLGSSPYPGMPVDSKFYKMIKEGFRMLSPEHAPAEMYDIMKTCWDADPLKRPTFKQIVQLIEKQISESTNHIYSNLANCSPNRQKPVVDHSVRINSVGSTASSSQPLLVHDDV
High affinity nerve growth factor receptor, sequence (P04629 whole entry): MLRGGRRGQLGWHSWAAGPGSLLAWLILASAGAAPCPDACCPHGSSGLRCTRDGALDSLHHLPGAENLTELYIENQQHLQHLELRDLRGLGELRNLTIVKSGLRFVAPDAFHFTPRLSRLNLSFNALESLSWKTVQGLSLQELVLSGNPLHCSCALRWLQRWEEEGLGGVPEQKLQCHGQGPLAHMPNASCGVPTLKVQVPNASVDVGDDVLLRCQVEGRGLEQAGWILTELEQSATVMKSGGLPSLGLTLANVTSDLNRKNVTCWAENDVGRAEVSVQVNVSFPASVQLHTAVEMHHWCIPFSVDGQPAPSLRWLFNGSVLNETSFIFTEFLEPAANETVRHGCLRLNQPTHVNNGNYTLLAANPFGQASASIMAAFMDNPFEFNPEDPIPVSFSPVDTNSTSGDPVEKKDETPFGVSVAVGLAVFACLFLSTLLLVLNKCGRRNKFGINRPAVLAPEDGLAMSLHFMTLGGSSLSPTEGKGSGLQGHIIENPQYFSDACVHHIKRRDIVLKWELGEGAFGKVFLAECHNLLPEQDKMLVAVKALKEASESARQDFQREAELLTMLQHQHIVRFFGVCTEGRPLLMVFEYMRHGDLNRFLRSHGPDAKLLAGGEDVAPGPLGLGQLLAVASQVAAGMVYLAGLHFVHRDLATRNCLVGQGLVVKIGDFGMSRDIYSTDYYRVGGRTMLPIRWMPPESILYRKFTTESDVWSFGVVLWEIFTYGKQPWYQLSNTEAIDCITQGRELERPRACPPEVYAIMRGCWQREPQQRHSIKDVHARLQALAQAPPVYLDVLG
Platelet-derived growth factor receptor beta, sequence (P09619 whole entry): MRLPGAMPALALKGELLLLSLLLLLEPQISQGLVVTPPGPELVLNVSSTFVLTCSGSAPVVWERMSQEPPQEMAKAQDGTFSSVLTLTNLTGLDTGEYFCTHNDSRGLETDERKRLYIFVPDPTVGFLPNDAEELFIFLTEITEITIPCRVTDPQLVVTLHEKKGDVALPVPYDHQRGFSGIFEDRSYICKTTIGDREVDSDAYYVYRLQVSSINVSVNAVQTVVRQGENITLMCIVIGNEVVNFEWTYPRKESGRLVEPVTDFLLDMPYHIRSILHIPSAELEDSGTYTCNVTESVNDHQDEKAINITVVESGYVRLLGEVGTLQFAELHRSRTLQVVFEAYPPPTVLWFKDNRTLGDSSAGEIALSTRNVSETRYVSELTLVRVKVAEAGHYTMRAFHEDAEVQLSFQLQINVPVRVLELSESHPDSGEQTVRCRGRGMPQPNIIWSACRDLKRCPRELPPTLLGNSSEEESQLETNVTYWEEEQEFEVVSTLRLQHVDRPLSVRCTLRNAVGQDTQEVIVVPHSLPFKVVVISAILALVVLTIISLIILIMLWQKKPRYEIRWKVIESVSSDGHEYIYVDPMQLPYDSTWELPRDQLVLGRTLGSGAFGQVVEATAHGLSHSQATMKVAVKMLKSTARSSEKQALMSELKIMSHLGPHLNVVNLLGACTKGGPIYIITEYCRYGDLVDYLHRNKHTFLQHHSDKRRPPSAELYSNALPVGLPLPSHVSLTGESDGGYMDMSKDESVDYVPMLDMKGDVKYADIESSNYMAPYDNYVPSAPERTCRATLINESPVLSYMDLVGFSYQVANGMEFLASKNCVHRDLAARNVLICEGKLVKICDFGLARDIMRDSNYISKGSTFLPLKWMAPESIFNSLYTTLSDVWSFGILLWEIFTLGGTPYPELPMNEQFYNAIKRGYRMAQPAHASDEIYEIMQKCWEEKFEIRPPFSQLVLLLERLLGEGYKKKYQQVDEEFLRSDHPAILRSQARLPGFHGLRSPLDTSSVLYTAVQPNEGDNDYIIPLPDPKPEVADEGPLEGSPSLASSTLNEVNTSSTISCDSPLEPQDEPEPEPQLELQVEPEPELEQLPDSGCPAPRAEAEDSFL
Proto-oncogene tyrosine-protein kinase Src, sequence (P12931 2-536 limits assumed): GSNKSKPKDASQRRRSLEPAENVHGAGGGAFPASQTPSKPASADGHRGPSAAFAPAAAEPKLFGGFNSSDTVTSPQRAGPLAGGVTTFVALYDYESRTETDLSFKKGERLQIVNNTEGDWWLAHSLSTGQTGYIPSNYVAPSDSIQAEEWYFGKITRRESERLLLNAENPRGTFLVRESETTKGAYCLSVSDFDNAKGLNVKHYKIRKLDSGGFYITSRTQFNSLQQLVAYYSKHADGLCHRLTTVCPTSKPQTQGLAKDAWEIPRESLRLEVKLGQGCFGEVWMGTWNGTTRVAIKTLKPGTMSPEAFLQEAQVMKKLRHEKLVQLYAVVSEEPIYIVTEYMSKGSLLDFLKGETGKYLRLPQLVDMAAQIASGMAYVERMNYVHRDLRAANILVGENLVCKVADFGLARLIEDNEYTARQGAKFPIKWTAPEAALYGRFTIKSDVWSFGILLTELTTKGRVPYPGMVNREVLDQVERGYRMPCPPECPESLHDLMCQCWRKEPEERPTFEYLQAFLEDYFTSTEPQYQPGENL
Adenosine receptor A2a (Homo sapiens), sequence (P29274 whole entry): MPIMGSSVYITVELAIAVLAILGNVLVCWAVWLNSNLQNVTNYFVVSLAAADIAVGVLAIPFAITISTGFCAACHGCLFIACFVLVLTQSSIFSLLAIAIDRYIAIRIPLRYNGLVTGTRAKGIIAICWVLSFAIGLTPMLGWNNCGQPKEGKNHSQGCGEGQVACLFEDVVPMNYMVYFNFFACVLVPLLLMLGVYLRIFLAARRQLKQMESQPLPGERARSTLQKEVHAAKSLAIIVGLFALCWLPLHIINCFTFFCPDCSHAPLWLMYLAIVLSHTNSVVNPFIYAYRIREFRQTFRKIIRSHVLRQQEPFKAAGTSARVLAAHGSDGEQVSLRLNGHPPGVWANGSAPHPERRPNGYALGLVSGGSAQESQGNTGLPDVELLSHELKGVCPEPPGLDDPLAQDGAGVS

NC(=O)c1cn(-c2ccc3c(c2)CCC3)c2nc(Nc3ccccc3)ncc2c1=O
pIC50 [1]: 6.55

NC(=O)c1cn(-c2ccc3c(c2)CCC3)c2nc(Nc3ccc(CN4CCOCC4)cc3)ncc2c1=O
pIC50 [2]: 7.57
remaining at 10 min [3]: 2.5%
remaining at 10 min [4]: 9.7%
pIC50 [1]: 7.66

NC(=O)c1cn(-c2ccc3c(c2)CCC3)c2nc(Nc3ccc(C[C@H]4COC(=O)N4)cc3)ncc2c1=O
pIC50 [2]: 7.05

CCOC(=O)c1nc2cnc(Nc3ccccc3)nc2n(-c2ccccc2)c1=O [PTERIDINONE]
pIC50 [5]: 6.74

CCOC(=O)c1cn(-c2ccc3c(c2)CCC3)c2nc(Nc3ccc(N4CCN(C)CC4)cc3)ncc2c1=O
pIC50 [2]: 6.33
pIC50 [1]: 6.60

NC(=O)c1cn(-c2ccc3c(c2)CCC3)c2nc(Nc3ccc(CCN4CCOCC4)cc3)ncc2c1=O
pIC50 [2]: 8.10
remaining at 10 min [3]: 58%
remaining at 10 min [4]: 83%
pIC50 [1]: 8.10

CN1CCN(CCCNc2ncc3c(=O)c(C(N)=O)cn(-c4ccc5c(c4)CCC5)c3n2)CC1
pIC50 [1]: 5.74

CN(C)Cc1ccc(Nc2ncc3c(=O)c(C(N)=O)cn(-c4ccc5c(c4)CCC5)c3n2)cc1
pIC50 [2]: 8.40
remaining at 10 min [3]: 35%
remaining at 10 min [4]: 38%

CN1CCN(CCc2ccc(Nc3ncc4c(=O)c(C(N)=O)cn(-c5ccc6c(c5)CCC6)c4n3)cc2)CC1
pIC50 [2]: 8.05
remaining at 10 min [3]: 96%
remaining at 10 min [4]: 84%

NC(=O)c1cn(-c2ccc3c(c2)CCC3)c2nc(Nc3ccc(C4CCNCC4)cc3)ncc2c1=O
pIC50 [2]: 7.29

CN(C)CCc1ccc(Nc2ncc3c(=O)c(C(N)=O)cn(-c4ccc5c(c4)CCC5)c3n2)cc1
pIC50 [2]: 7.80
remaining at 10 min [3]: 88%
remaining at 10 min [4]: 65%

CN1CCN(c2ccc(Nc3ncc4c(=O)c(C(N)=O)cn(-c5ccc6c(c5)CCC6)c4n3)cc2)CC1
pIC50 [5]: 7.89
pIC50 [2]: 7.80
remaining at 10 min [3]: 80.5%
remaining at 10 min [4]: 87.3%
pIC50 [6]: 8.52
pIC50 [7]: 7.25
pIC50 [8]: < 6.00
pIC50 [9]: < 6.52
pIC50 [10]: 6.70
pIC50 [11]: < 6.00
pIC50 [12]: 6.00
inhibition [13]: 55%
clearance [14]: 133 mL/min/kg
Vd [15]: 18.7 L/kg

CC1CN(c2ccc(Nc3ncc4c(=O)c(C(N)=O)cn(-c5ccc6c(c5)CCC6)c4n3)cc2)CC(C)N1 (centres undefined)
pIC50 [2]: 8.52

CN1CCN(c2cccc(Nc3ncc4c(=O)c(C(N)=O)cn(-c5ccc6c(c5)CCC6)c4n3)c2)CC1
pIC50 [2]: 8.22

NC(=O)c1cn(-c2ccc3c(c2)CCC3)c2nc(Nc3ccc(N4CCNCC4)cc3)ncc2c1=O
pIC50 [2]: 8.40

CN1CCN(Cc2ccc(Nc3ncc4c(=O)c(C(N)=O)cn(-c5ccc6c(c5)CCC6)c4n3)cc2)CC1
pIC50 [2]: 7.96
remaining at 10 min [3]: 74%
remaining at 10 min [4]: 54%
pIC50 [6]: 9.00
pIC50 [7]: 7.55
pIC50 [8]: < 5.70
pIC50 [9]: < 6.30
pIC50 [10]: 6.51
pIC50 [11]: < 5.70
pIC50 [12]: 5.82
inhibition [16]: 60%
inhibition [17]: 58%
clearance [14]: 29 mL/min/kg
Vd [15]: 26.5 L/kg
bioavailability [18]: 4%
Activity [19]: 81%
Activity [20]: 87%

NC(=O)c1cn(-c2ccc3c(c2)CCC3)c2nc(Nc3cccc(C(=O)N4CCCCC4)c3)ncc2c1=O
pIC50 [2]: 7.85
